The test system of assay [1] is PBMCs from a patient with acute hepatitis. Put plainly: CTL response to HBenv 348-357 peptide in PBMCs of a patient with acute hepatitis, HLA-A2 matched targets. The format is cell-based, human. The method, then:
The CTL induced by the HBenv 348-357 peptide were identified in PBMCs from a patient with acute hepatitis according to the procedure set forth in Example XV, except that the PMBCs were stimulated with individual peptide rather than peptide mixtures. The resulting CTL line was then tested for the ability to kill HLA-A2 matched target cells that were pulsed with the peptide or that expressed endogenous envelope antigens of ayw or adw subtypes.

Assay [2] concerns CTL clone 3D11 (HLA A31 restricted). It counts as cell-based, human.
Assay [3] concerns CTL clone 2D7 (HLA Aw68 restricted). It counts as cell-based, human.
For the next assay, the system named is CTL clones 3D11 and 2D7. The following applies: peptide 10-3 μM to 1μM.
The test system of assay [4] is PBMCs from a patient with acute hepatitis. Nature of the assay: CTL response to HBx peptide in PBMCs of a patient with acute hepatitis, HLA-A2 matched peptide-pulsed targets. It counts as cell-based, human.
For a further assay, the target named is T1, HLA-A2.1 (Homo sapiens, UniProt P04439, D140Y/D185E/D98H/E176V/E277Q/G131W/G231S/I119V/I121R/I166T/I218V/L300P/L318F/N151K/N90K/P208A/P217A/Q86G/Q94H/R138H/R169H/T345S).
T1 construct: Purified class I molecules (10 to 50 nM) were incubated at room temp. with various doses of the peptides
It counts as binding.

Assay [5] concerns PBMC from HLA-A2 positive patients with acute hepatitis B. The format is cell-based, human.
The subject of assay [6] is PBMCs from a patient with acute hepatitis (HLA-A2+). It counts as cell-based, human.
Assay [7] relates to HBpol455-463 specific CTL. It counts as cell-based, human.
Where [8] appears, read: ratio from IC50 competition with radiolabeled HBc18-27 analogue, 48 hrs, room temp.

Where two headings read alike, the source gives them in different places.

Regarding “Gly-Leu-Ser-Pro-Thr-Val-Trp-Leu-Ser-Val (GLSPTVWLSV; printed: Gly-Leu-Ser-Pro-Thr-Val-Trp-Leu-Ser-Val) [HBenv peptide 348-357]”, the “CTL recognition of envelope antigen of the adw subtype” value in assay [1] is listed as “did not recognize the adw subtype”. Further, in assay [1] (effector:target cell ratio of 3:1), the “CTL response to target cells pulsed with peptide” value is “responded to target cells”.

STLPETTVVRR [141-151]: the “Clone 3D11 Restriction Element A31 Percent 51CR Release” value in assay [2] is 69%. Moreover, the “Clone 2D7 Restriction Element Aw68 Percent 51CR Release” value in assay [3] was determined as 66%. For the same substance, the “efficiency of target lysis in dose titration” value in the assay with CTL clones 3D11 and 2D7 is “minimal optimally recognized epitope recognized by both of the CTL clones”.

Take EIRLKVFVL: in assay [4], the “induction of specific CTL response by peptide” value is reported as “not able to induce a specific CTL response” and the “recognition by CTL induced with the analog peptide AIRLKVFVL” value is recorded as “also recognized the peptide with the wild type sequence”.

With YLHTLWKAGI [Pol149-158], the “Binding affinity (HLA-A2.1 binding affinity ratio)” value in the assay with HLA-A2.1 (setting [8]) came to 0.0560. The “Acute HBV patients Responders” value in assay [5] is 0.

On to “AIRLKVFVL [HBx peptide 126-134 with the amino terminal residue substituted with alanine]”, for which, in assay [4], the “induction of specific CTL response by peptide” value was “CTL were stimulated”.

As for SLYADSPSV [Pol816-824], on HLA-A2.1, the “Binding affinity (HLA-A2.1 binding affinity ratio)” value is on record as 0.3500. Moreover, in [5], the “% 51Cr Release Mean” value is given as 30%, the “% 51Cr Release Range” value is listed as 25-32% and the “Acute HBV patients Responders” value is reported as 3.

Take GLSRYVVCL: the “HLA-A2 binding affinity compared with the prototype peptide GLSRYVARL” value in the assay with HLA-A2.1 is reported as “greater than the prototype peptide”.

Consider “Ser-Leu-Tyr-Ala-Asp-Ser-Pro-Ser-Val [HBpol803-811]”, for which, in [6], the “CTL response using target cells pulsed with peptide” value was “stimulated CTL responses” and the “response of peptide specific clone to endogenously synthesized Vpol antigen” value was “showed a response to endogenously synthesized Vpol antigen”.

Regarding “GVSRYVARL [variant of HBpol455-463 (ayw isolate)]”, the “recognition by GLSRYVARL (HBpol455-463) induced CTL” value in assay [7] was “poorly recognized”.

Consider “WLSLLVPFV [Env335-343, reference compound]”, for which, in the assay with HLA-A2.1 (setting [8]), the “Binding affinity (HLA-A2.1 binding affinity ratio)” value amounted to 0.7200. In assay [5], the “% 51Cr Release Mean” value was found to be 66%, the “% 51Cr Release Range” value is 21-88% and the “Acute HBV patients Responders” value worked out at 6.

The record behind these values is US6607727B1, “Peptides for inducing cytotoxic T lymphocyte responses to hepatitus B virus” (priority 1991, dated 2003).
